Assays:
Mus musculus [1] = test: Antiinflammatory activity against carrageenan-induced paw edema in ICR mouse at 50 mg/kg, ip administered 30 mins before carrageenan challenge assessed after 0.5 hrs; type: functional; details: route intraperitoneal
Mus musculus [2] = test: Antiinflammatory activity against carrageenan-induced paw edema in ICR mouse at 50 mg/kg, ip administered 30 mins before carrageenan challenge assessed after 1 hr; type: functional; details: route intraperitoneal
Mus musculus [3] = test: Antiinflammatory activity against carrageenan-induced paw edema in ICR mouse at 50 mg/kg, ip administered 30 mins before carrageenan challenge assessed after 2 hrs; type: functional; details: route intraperitoneal
Mus musculus [4] = test: Antiinflammatory activity against carrageenan-induced paw edema in ICR mouse at 50 mg/kg, ip administered 30 mins before carrageenan challenge assessed after 3 hrs; type: functional; details: route intraperitoneal
Mus musculus [5] = test: Antiinflammatory activity against carrageenan-induced paw edema in ICR mouse at 50 mg/kg, ip administered 30 mins before carrageenan challenge assessed after 4 hrs; type: functional; details: route intraperitoneal
Mus musculus [6] = test: Antiinflammatory activity against carrageenan-induced paw edema in ICR mouse at 50 mg/kg, ip administered 30 mins before carrageenan challenge assessed after 5 hrs; type: functional; details: route intraperitoneal
Mus musculus [7] = test: Antiinflammatory activity against carrageenan-induced paw edema in ICR mouse at 100 mg/kg, ip administered 30 mins before carrageenan challenge assessed after 0.5 hrs; type: functional; details: route intraperitoneal
Mus musculus [8] = test: Antiinflammatory activity against carrageenan-induced paw edema in ICR mouse at 100 mg/kg, ip administered 30 mins before carrageenan challenge assessed after 1 hr; type: functional; details: route intraperitoneal
Mus musculus [9] = test: Antiinflammatory activity against carrageenan-induced paw edema in ICR mouse at 100 mg/kg, ip administered 30 mins before carrageenan challenge assessed after 2 hrs; type: functional; details: route intraperitoneal
Mus musculus [10] = test: Antiinflammatory activity against carrageenan-induced paw edema in ICR mouse at 100 mg/kg, ip administered 30 mins before carrageenan challenge assessed after 3 hrs; type: functional; details: route intraperitoneal
Mus musculus [11] = test: Antiinflammatory activity against carrageenan-induced paw edema in ICR mouse at 100 mg/kg, ip administered 30 mins before carrageenan challenge assessed after 4 hrs; type: functional; details: route intraperitoneal
Mus musculus [12] = test: Antiinflammatory activity against carrageenan-induced paw edema in ICR mouse at 100 mg/kg, ip administered 30 mins before carrageenan challenge assessed after 5 hrs; type: functional; details: route intraperitoneal
RAW264.7 = test: Inhibition of LPS-induced nitric oxide production in mouse RAW264.7 cells assessed as nitrite levels in supernatant after 24 hrs by griess assay; type: functional, cell-based
Mus musculus [13] = test: Antiinflammatory activity against carrageenan-induced paw edema in ICR mouse at 4 mg/kg, ip administered 30 mins before carrageenan challenge assessed after 0.5 hrs; type: functional; details: route intraperitoneal
Mus musculus [14] = test: Antiinflammatory activity against carrageenan-induced paw edema in ICR mouse at 4 mg/kg, ip administered 30 mins before carrageenan challenge assessed after 1 hr; type: functional; details: route intraperitoneal
Mus musculus [15] = test: Antiinflammatory activity against carrageenan-induced paw edema in ICR mouse at 4 mg/kg, ip administered 30 mins before carrageenan challenge assessed after 2 hrs; type: functional; details: route intraperitoneal
Mus musculus [16] = test: Antiinflammatory activity against carrageenan-induced paw edema in ICR mouse at 4 mg/kg, ip administered 30 mins before carrageenan challenge assessed after 3 hrs; type: functional; details: route intraperitoneal
Mus musculus [17] = test: Antiinflammatory activity against carrageenan-induced paw edema in ICR mouse at 4 mg/kg, ip administered 30 mins before carrageenan challenge assessed after 4 hrs; type: functional; details: route intraperitoneal
Mus musculus [18] = test: Antiinflammatory activity against carrageenan-induced paw edema in ICR mouse at 4 mg/kg, ip administered 30 mins before carrageenan challenge assessed after 5 hrs; type: functional; details: route intraperitoneal

| Structure (SMILES) | Activity (Mus musculus [1]) [%] | Activity (Mus musculus [2]) [%] | Activity (Mus musculus [3]) [%] | Activity (Mus musculus [4]) [%] | Activity (Mus musculus [5]) [%] | Activity (Mus musculus [6]) [%] | Activity (Mus musculus [7]) [%] | Activity (Mus musculus [8]) [%] | Activity (Mus musculus [9]) [%] | Activity (Mus musculus [10]) [%] | Activity (Mus musculus [11]) [%] | Activity (Mus musculus [12]) [%] | Activity (RAW264.7) | Activity (Mus musculus [13]) [%] | Activity (Mus musculus [14]) [%] | Activity (Mus musculus [15]) [%] | Activity (Mus musculus [16]) [%] | Activity (Mus musculus [17]) [%] | Activity (Mus musculus [18]) [%] |
| --- | --- | --- | --- | --- | --- | --- | --- | --- | --- | --- | --- | --- | --- | --- | --- | --- | --- | --- | --- |
| COC(=O)C1=CCC[C@H]2[C@]3(C)C[C@@H](c4ccoc4)OC(=O)[C@H]3CC[C@@]12C [FLORIBUNDIC ESTER] | 16.27 | 20.95 | 21.51 | 21.84 | 21.85 | 20.18 | 13.07 | 15.46 | 16.78 | 13.95 | 14.9 | 13.07 | – | – | – | – | – | – | – |
| C[C@@]12C[C@H](c3ccoc3)OC(=O)C1=CC[C@]1(C)[C@H]2[C@@H]2OC(=O)[C@@]1(O)[C@H]1O[C@@H]21 [FIBRAURIN] | 19.68 | 27.17 | 28.66 | 30.5 | 32.19 | 33.57 | 10.1 | 12.44 | 14 | 10.85 | 11.41 | 10.61 | Dose-dependent effect | – | – | – | – | – | – |
| C[C@@]12CC=C3C(=O)O[C@@H](c4ccoc4)C[C@@]3(C)[C@@H]1CC=CC2=O [FIBARURETIN D] | 19.44 | 24.17 | 25.18 | 21.55 | 20.67 | 20.5 | 17 | 20.91 | 22.79 | 21.47 | 23.67 | 23.41 | – | – | – | – | – | – | – |
| COc1ccc2c(c1)c(CC(=O)O)c(C)n2C(=O)c1ccc(Cl)cc1 [INDOMETHACIN] | – | – | – | – | – | – | – | – | – | – | – | – | – | 20.77 | 21.48 | 19.53 | 18.52 | 17.04 | 16.3 |
| C[C@@]12C[C@H](c3ccoc3)OC(=O)[C@@H]1CC[C@@]1(CO[C@@H]3O[C@H](CO)[C@@H](O)[C@H](O)[C@H]3O)C(=O)C=CC[C@H]12 | – | – | – | – | – | – | – | – | – | – | – | – | Dose-dependent effect | – | – | – | – | – | – |
| C[C@@]12[C@H]3CC=C[C@@]1(O[C@@H]1O[C@H](CO)[C@@H](O)[C@H](O)[C@H]1O)C(=O)O[C@@H]2C[C@]1(O)C(=O)O[C@H](c2ccoc2)C[C@@]31C | – | – | – | – | – | – | – | – | – | – | – | – | Dose-dependent effect | – | – | – | – | – | – |
